Laboratory results published in ChEMBL document CHEMBL1152127, “Kinetic isotope effects in the oxidation of arachidonic acid by soybean lipoxygenase-1” (Bioorg Med Chem Lett, 2008).

Assays:
Glycine max [1] = assay: Activity of soybean lipoxygenase 1 assessed as rate of oxidation under diffusion-controlled reaction at 20 deg C
Glycine max [2] = assay: Activity of soybean lipoxygenase 1 assessed as rate of oxidation under diffusion-controlled reaction at 5 deg C
Glycine max [3] = assay: Activity of soybean lipoxygenase 1
Glycine max [4] = assay: Activity of soybean lipoxygenase 1 assessed as rate of oxidation under diffusion-controlled reaction at 37 deg C

Row | SMILES | Activity (Glycine max [1]) [%] | Activity (Glycine max [2]) [%] | Km (Glycine max [3]) [µM] | Activity (Glycine max [4]) [%]
1 | CCCCC/C=C\C/C=C\C/C=C\C/C=C\CCCC(=O)O | 56 | 18 | 15 | 28
2 | CCCCC/C=C\C/C=C\CCCCCCCC(=O)O |  |  | 39 | 
